The numbers were not newly measured in patent publication US6387915B2, “Isoxazole-sulfonamide endothelin antagonists” (Pfizer Inc., priority 2000, dated 2002), which cites them from elsewhere.

Series [1] deals with neointimal formation. The note with it: S. Douglas et al., Circ. Res, 75, 1994.
The conditions of series [2]: in man; Hypertension (1999) 33, 581-585.
For series [3] the following is noted: hypertensive patients; H. Krum et al., New Eng. J. Med. (1998) 338, 784-790.

Consider `CCCOc1ccc2c(c1)[C@@H](c1ccc(OC)cc1OCC(=O)O)[C@H](C(=O)O)[C@H]2c1ccc2c(c1)OCO2` [SB-209670], for which the “reduction in neointimal formation relative to control animals” value in series [1] is reported as 50%. For the compound `CCCC[C@@H](NC(=O)[C@@H](Cc1cn(C(=O)OC)c2ccccc12)NC(=O)[C@H](CC(C)(C)C)NC(=O)N1[C@H](C)CCC[C@@H]1C)C(=O)O` [BQ-788], the “effect on peripheral resistance” value in series [2] is “increase peripheral resistance”.

Consider `COc1ccccc1Oc1c(NS(=O)(=O)c2ccc(C(C)(C)C)cc2)nc(-c2ncccn2)nc1OCCO` [Bosentan], for which the “effect on blood pressure” value in series [3] is “decreased blood pressure”.
